{"source": "patent US10682413B2", "about": "“Pharmaceutical forms of diazabicyclooctane derivatives and process for producing the same” (Fedora Pharmaceuticals Inc., priority 2017, dated 2020)", "experiment": "Decomposition of Compound (I) in aqueous solutions", "assay_type": "physicochemical", "text": "The present application is directed to a pharmaceutical composition of Compound (I) suitable for parenteral administration. […] Applicant discovered a lyophilisate formulation comprising a sugar and Compound (I) to afford an amorphous lyophilisate suitable for intravenous administration."}
{"smiles": "NCCONC(=O)[C@@H]1CC[C@@H]2CN1C(=O)N2OS(=O)(=O)O", "note": "[Compound (I), (2S, 5R)—N-(2-aminoethoxy)-7-oxo-6-(sulfooxy)-1,6-diazabicyclo[3.2.1]octane-2-carboxamide]", "values": [{"measurement": "stability in aqueous solutions", "result": "undergoes decomposition and dimerization in aqueous solutions"}]}
